From US11219603B2, “Stable dosage form of etidronate-cytarabine conjugate, and use thereof” (MAXWELL BIOTECH GROUP LTD., priority 2015, dated 2022)

Assay: Thermal behaviour of solutions for lyophilization (DSC)
Format: physicochemical
Conditions: for Thermal effect (event), in words: wrapped cell reads 'Tgt/endothermicity before alloy expansion'
Source text: The thermal properties of the solutions provided for lyophilization were investigated. Differential Scanning calorimetry (DSC) was used to identify the lowest possible transient temperature in the solution throughout the entire lyophilization process, including freezing and dehydration. For the solutions of most pharmaceutical products, this parameter is represented by the glass transition temperature or “Tgt”. All components and their amounts in the solution contribute to the final value of Tgt. This temperature is usually several degrees below the temperature at which the sintered material can crumble during the lyophilization process (collapse temperature, Tc). Without determining the collapse temperature by such methods as cryomicroscopy, the glass transition temperature can be used to select the primary drying temperature. Until the primary drying is completed, the initial drying temperature should be set in such a manner that there are no vials for which the glass transition temperature has been exceeded (or Tc, if known). Otherwise, the structure of the sintered material may get broken. On the one hand, the lyophilization temperature should be close to Tgt, so that the process proceeds efficiently, and on the other hand, it cannot exceed Tgt due to process requirements and qualitative product parameters. Thus, the values of collapse and glass transition temperature are important parameters for calculating safe upper temperature limits, which can be used for lyophilization.
Based on the proposed filling of the vials with the drug (100 mg of active ingredient per vial), potential solutions for filling were prepared. The excipients included sterile water for injection (SWFI), 50 mM succinate and tartrate buffers at pH 5, MgCl2, sulfobutylether β-cyclodextrin (SBEβCD), mannitol and dextran 40. In addition, for solutions containing mannitol, a study of the effect of the annealing stage (the lyophilization process stage when the samples are kept at a certain temperature below the freezing point for a certain period of time) on the improvement the crystallinity of the finished product was performed. […]

[1] = SWFI, MBC-11 25 mg/mL, MgCl2 43.25 mmol/L, Mannitol 25 mg/mL, Annealing at −20° C.
[2] = SWFI, MBC-11 25 mg/mL, MgCl2 43.25 mmol/L, Mannitol 25 mg/mL, Annealing at −24° C.
[3] = SWFI, MBC-11 25 mg/mL, MgCl2 43.25 mmol/L, pH 4.59
[4] = SWFI, MBC-11 50 mg/mL, MgCl2 86.5 mmol/L, pH 4.52
[5] = Succinate buffer, MBC-11 25 mg/mL, MgCl2 86.5 mmol/L, pH 4.52
[6] = Tartrate buffer, MBC-11 25 mg/mL, MgCl2 86.5 mmol/L, pH 4.48

CC(O)(P(=O)(O)O)P(=O)(O)OP(=O)(O)OC[C@H]1O[C@@H](n2ccc(N)nc2=O)[C@@H](O)[C@@H]1O (stereo partly drawn) [MBC-11]
Thermal effect (event): Tgt (SWFI, MBC-11 25 mg/mL, MgCl2 43.25 mmol/L, Dextran-40 5%): −21 °C (Tgt)
Thermal effect (event): possible crystallization (SWFI, MBC-11 25 mg/mL, MgCl2 43.25 mmol/L, Mannitol 25 mg/mL): at −27 °C
Thermal effect (event): crystallization after temperature processing [1]: None
Thermal effect (event): specific endothermicity [1]: −22 °C
Thermal effect (event): crystallization after annealing [2]: None
Thermal effect (event): weak endothermicity [2]: −22 °C
Thermal effect (event): Tgt [3]: −22 °C (Tgt)
Thermal effect (event): endotherm [3]: −21 °C
Thermal effect (event): Tgt (SWFI, MBC-11 25 mg/mL, MgCl2 86.5 mmol/L, Dextran-40 5%): −27 °C (Tgt)
Thermal effect (event), in words (SWFI, MBC-11 25 mg/mL, MgCl2 86.5 mmol/L, Mannitol 25 mg/mL): Tgt/endothermicity
Thermal effect (event): endothermicity (SWFI, MBC-11 25 mg/mL, MgCl2 86.5 mmol/L, pH 4.35): −26 °C
Thermal effect (event): Tgt (SWFI, MBC-11 50 mg/mL, 20% SBEβCD): −26 °C (Tgt)
Thermal effect (event): Tgt (SWFI, MBC-11 50 mg/mL, MgCl2 86.5 mmol/L, Dextran-40 5%): −24 °C (Tgt)
Thermal effect (event), in words (SWFI, MBC-11 50 mg/mL, MgCl2 86.5 mmol/L, Mannitol 25 mg/mL): Tgt/endothermicity
Thermal effect (event): Tgt [4]: −34 °C (Tgt)
Thermal effect (event): endothermicity [4]: −21 °C
Thermal effect (event): Tgt (SWFI, MBC-11 50 mg/mL, MgCl2 173 mmol/L, Dextran-40 5%): −36 °C (Tgt)
Thermal effect (event), in words (SWFI, MBC-11 50 mg/mL, MgCl2 173 mmol/L, Mannitol 25 mg/mL): Tgt/endothermicity
Thermal effect (event): endothermicity (SWFI, MBC-11 50 mg/mL, MgCl2 173 mmol/L, pH 4.23): −26 °C
Thermal effect (event): Tgt (SWFI, MBC-11 50 mg/mL, no excipient, pH 5.2): −21 °C (Tgt)
Thermal effect (event): endothermicity (SWFI, MBC-11 100 mg/mL, MgCl2 173 mmol/L): −22 °C
Thermal effect (event): Tgt (SWFI, MBC-11 100 mg/mL, MgCl2 173 mmol/L, Dextran-40 5%): −29 °C (Tgt)
Thermal effect (event): endothermicity (SWFI, MBC-11 100 mg/mL, MgCl2 350 mmol/L): −26 °C
Thermal effect (event): Tgt (SWFI, MBC-11 100 mg/mL, no excipient, pH 5.4): −21 °C (Tgt)
Thermal effect (event): Tgt (Succinate buffer, MBC-11 25 mg/mL, MgCl2 86.5 mmol/L, Dextran-40 5%): −30 °C (Tgt)
Thermal effect (event), in words (Succinate buffer, MBC-11 25 mg/mL, MgCl2 86.5 mmol/L, Mannitol 25 mg/mL): Tgt/endothermicity
Thermal effect (event): crystallization [5]: −34 °C
Thermal effect (event): endothermicity [5]: −26 °C
Thermal effect (event): Tgt (Tartrate buffer, MBC-11 25 mg/mL, MgCl2 86.5 mmol/L, Dextran-40 5%): −26 °C (Tgt)
Thermal effect (event): Tgt (Tartrate buffer, MBC-11 25 mg/mL, MgCl2 86.5 mmol/L, Mannitol 25 mg/mL): −40 °C (Tgt)
Thermal effect (event): Tgt [6]: −40 °C (Tgt)
Thermal effect (event): crystallization [6]: −30 °C
Thermal effect (event): endothermicity [6]: −22 °C
